Experimental data as given in patent US5232924A, “Heterocyclic compound having serotonine 2-receptor antagonistic activity” (Daiichi Pharmaceutical Co., Ltd., priority 1989, dated 1993).

Tests used:
Serotonin 2-Receptor = biological target: T1, Serotonin 2-Receptor (Rattus norvegicus, UniProt P14842); test: Binding activity to serotonin 2-receptor, 3H-Ketanserin, rat frontal cortex membrane preparation; conditions: calculated from the 50% inhibitory concentration, hydrochloride, read-out: dissociation constant for serotonin 2-receptor
T1 construct: from tissue; host or cells: intact anesthetized SD-SLC male rat (vascular response)
Protocol: A male SD rat was decapitated under anesthesia, and the frontal cortex was removed to obtain a membrane preparation. ^3 H-Ketanserin and Methysergide were used as a labelled ligand and a non-specific binding reagent, respectively. These reagents and a test compound thereof were dissolved in a 5% methanol tris-buffer solution. After incubation, this solution was filtered by suction through a GF/B glass filter. Radioactivity of ^3 H-Ketanserin collected on the filter was measured with a liquid scintillation counter. A Scatchard plot was prepared from the resulting radioactivity values, and a dissociation constant of serotonin 2-receptor and a receptor density of the membrane preparation were obtained. Further, from the receptor-binding inhibition curve of the compound is obtained a 50% inhibitory concentration, and a dissociation constant indicative of the binding affinity to serotonin 2-receptor was calculated.

Mongrel dogs [1] = test: Acute cardiac infarction model: LDA ligature and reperfusion in dogs; assay type: in vivo; conditions: dog, hydrochloride 1 mg/kg/hr intravenous drip, versus control group
Protocol: Mongrel dogs (body weight: 8 to 20 kg) under anesthesia were ventilated artificially and underwent a left thracotomy. […] A polyethylene cannula was inserted into the femoral artery, and the blood pressure and heart rate were recorded A cannula was inserted into the […] of a drug and also into the carotid artery from which a blood sample was to be taken. After stabilization period of the test preparation, LDA was ligated with a clamp. After 2 hours from the ligature, the clamp was released for reperfusion. After observation for the following 4 hours, the heart was excised. […] Then, the heart was washed and sliced at 1 cm intervals from the apex in the direction vertical to the longer axis. Each slice at the left ventricle was divided into a part which was in risk of cardiac infarction indicated by Evans' Blue stain (hereinafter referred to as risk area) and a normal area, and each area was weighed. The weight of the left ventricle (the sum of the risk area and the normal area) and that of the risk area of each slice were individually added up to obtain the weight of the whole left ventricle and the total weight of the risk area. Further, of each slice, the area of the risk area which was not stained with Evans' Blue and that of a cardiac infarction area within the risk area which remained white, i.e., which was stained neither in blue with Evans' Blue nor in red with triphenyltetrazolium chloride, were measured to obtain a ratio of cardiac infarction part to the whole left ventricle (infarction size). […] The experiment was conducted for the following groups.

Mongrel dogs [2] = test: Angina pectoris model: partial LDA occlusion with cyclic coronary flow reduction in dogs; assay type: in vivo; conditions: dog, maleate 0.1 mg/kg i.v., compared with before administration
Protocol: Mongrel dogs (body weight: 8 to 20 kg) under anesthesia with pentobarbital (30 mg/kg, i.v.) were ventilated artificially and underwent a left thoracotomy. LDA was separated from connected tissues. A silicone tube for partial occlusion was placed around the LDA, and a probe for blood flow rate measurement was fixed in the neighborhood. The blood flow rate was measured with a pulse Doppler blood flow meter. A cannula was inserted into a branch distal to the occlusion site of the left coronary artery, and the coronary blood pressure was measured. A polyethylene cannula was inserted into the femoral artery, and the systemic blood pressure and heart rate were recorded. A cannula was inserted to the femoral vein for administration of a drug.
The effect of the drug was expressed in terms of frequency of the periodic reduction of blood flow rate.

T1 sequence (P14842 whole entry): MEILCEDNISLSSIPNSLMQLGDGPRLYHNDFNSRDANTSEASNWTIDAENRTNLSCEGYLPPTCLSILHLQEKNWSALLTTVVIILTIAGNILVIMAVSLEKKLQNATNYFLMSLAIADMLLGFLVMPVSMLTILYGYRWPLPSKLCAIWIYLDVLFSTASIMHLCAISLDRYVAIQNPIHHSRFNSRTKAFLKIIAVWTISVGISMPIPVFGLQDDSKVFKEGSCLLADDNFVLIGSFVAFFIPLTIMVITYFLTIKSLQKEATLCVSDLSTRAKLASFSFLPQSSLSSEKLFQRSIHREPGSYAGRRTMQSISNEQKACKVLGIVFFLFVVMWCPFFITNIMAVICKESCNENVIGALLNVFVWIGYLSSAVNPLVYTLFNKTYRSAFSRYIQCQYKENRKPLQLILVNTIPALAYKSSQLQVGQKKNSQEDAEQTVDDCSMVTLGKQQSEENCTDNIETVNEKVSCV

O=C(c1ccc(F)cc1)C1CCN(CCn2c(=O)nc3n(c2=O)CCCC3)CC1 [Example 1, 3-[2-[4-(4-Fluorobenzoyl)piperidin-1-yl]ethyl]-6,7,8,9-tetrahydro-2H-pyrido[1,2-a]-1,3,5-triazine-2,4(3H)-dione]
Ki (Serotonin 2-Receptor): 15 nM
effect on myocardial infarction size (in words) (Mongrel dogs [1]): significantly reduced
effect on frequency of the cyclic coronary flow reduction (in words) (Mongrel dogs [2]): significantly reduces
